Data as given in patent US12371400B2, “Cathepsin inhibitors” (ACADEMISCH ZIEKENHUIS LEIDEN (H.O.D.N. LUMC), priority 2017, dated 2025).

How the values were obtained:
hCatK = biological target: T1, hCatK (Homo sapiens, UniProt P43235); experiment: Kinetic evaluation of covalent inhibitors on purified hCatK; assay type: biochemical; conditions: 100 pM hCatK, 4 μM Z-FR-AMC, 26° C., reaction started by addition of CatK; for Ki: read-out: Kl; for kinact: read-out: kinact (converted)
T1 sequence (P43235 115-329): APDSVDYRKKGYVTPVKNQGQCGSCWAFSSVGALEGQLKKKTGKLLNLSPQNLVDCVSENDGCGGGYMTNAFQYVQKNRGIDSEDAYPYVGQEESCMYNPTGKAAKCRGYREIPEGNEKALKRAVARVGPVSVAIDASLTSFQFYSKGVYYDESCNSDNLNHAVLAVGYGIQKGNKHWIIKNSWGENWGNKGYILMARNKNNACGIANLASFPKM
Experimental: The reaction kinetics of irreversible covalent inhibitor compounds may be assed in the following manner. Inhibitors (200 nL, 100× final concentration in DMSO) were diluted in reaction buffer (10 μL). Fluorogenic substrate (5 μL, 4× final concentration) was added and the reaction was started by addition of Cathepsin (5 μL, 4× final concentration). Fluorescence intensity was measured every 2 minutes for 60 minutes and fitted to equation I to obtain the Kobs. The obtained values were plotted against the inhibitor concentration and fitted to equation II to obtain kinetic parameters Kinact (rate of covalent bond formation) and Ki.
Kinetic evaluation of irreversible covalent inhibitors was conducted by following the progress curve of inhibition when the hydrolysis of substrate is started by addition of the enzyme (instead of incubating the protease with the inhibitor prior to addition of the substrate). From this curve the maximum rate of covalent bond formation (Kinact) could be determined (Table 4).

hCatV = hCatV (Homo sapiens, UniProt O60911); experiment: In vitro inhibition of purified human Cathepsin V (Z-FR-AMC); assay type: biochemical; conditions: 30 min incubation with inhibitor, mean ± SD, triplicate
Experimental: (§1) Cathepsin (e.g. Cathepsin K/L/V/S/B), in particular purified human Cathepsin, was diluted in freshly prepared reaction buffer consisting of 50 mM MES pH 5.5, 25 mM EDTA and 2.5 mM DTT. 0.05% Tween20 (v/v) may be added to the reaction buffer of the Cathepsin K.
(§2) Activity assays may be conducted in a suitable manner. […] Plates were shaken at 600 rpm for 1 minute and centrifuged at 1000 rpm for 1 minute prior to incubation. Cathepsin activity was quantified using synthetic fluorogenic peptide substrate Z-FR-AMC (Cath K, L, V), Z-RR-AMC (Cath B) or Z-FVR-AMC (Cath S). Fluorescence intensity (λex=350 nm, λem=440 nm) was measured every 2 minutes in arbitrary units (A.U.) on a CLARIOstar (BMG Labtech) microplate reader and values were converted to product formation [AMC]. […] Measurements were performed in triplicate.
(§3) Inhibitors (200 nL, 100× final concentration in DMSO) were diluted in reaction buffer (10 μL). Purified human Cathepsin (5 μL, 4× final concentration) was added and the reaction mixture was incubated for 30 min at room temperature. Fluorogenic substrate (5 μL, 4× final concentration) was added and fluorescence intensity was measured every 2 minutes for 30-90 minutes.
(§4) The potency of the compounds as CatK inhibitors was assessed in an in vitro inhibition assay on purified human CatK (Table 2). Cathepsin was incubated with inhibitor, and the hydrolysis of substrate was initiated by addition of substrate.

hCatS = hCatS (Homo sapiens, UniProt P25774); experiment: In vitro inhibition of purified human Cathepsin S (Z-FVR-AMC); assay type: biochemical; conditions: 30 min incubation with inhibitor, mean ± SD, triplicate
Experimental: as §1
Activity assays may be conducted in a suitable manner. In the experiments described herein, the assays were typically conducted in Corning 3820 Low Volume 384 Well Assay Plate with a final assay volume of 20 μL. Plates were shaken at 600 rpm for 1 minute and centrifuged at 1000 rpm for 1 minute prior to incubation. Cathepsin activity was quantified using synthetic fluorogenic peptide substrate Z-FR-AMC (Cath K, L, V), Z-RR-AMC (Cath B) or Z-FVR-AMC (Cath S). Fluorescence intensity (λex=350 nm, λem=440 nm) was measured every 2 minutes in arbitrary units (A.U.) on a CLARIOstar (BMG Labtech) microplate reader and values were converted to product formation [AMC]. […] Measurements were performed in triplicate.
as §3, §4

hCatB = hCatB (Homo sapiens, UniProt P07858); experiment: In vitro inhibition of purified human Cathepsin B (Z-RR-AMC); assay type: biochemical; conditions: 30 min incubation with inhibitor, mean ± SD, triplicate
Experimental: as §1, §2, §3, §4

hCatL = hCatL (Homo sapiens, UniProt P07711); experiment: In vitro inhibition of purified human Cathepsin L (Z-FR-AMC); assay type: biochemical; conditions: 30 min incubation with inhibitor, mean ± SD, triplicate
Experimental: as §1, §2, §3, §4

CatK [1] = biological target: T2, CatK (Homo sapiens, UniProt P43235); experiment: CatK activity (probe BMV109) and CatK expression (Western blot) in OC lysates; assay type: cell-based; parameters: endogenous in cells; host or cells: human osteoclasts differentiated from CD14+ monocytes on cortical bone slices; conditions: for mature CatK in OCs (Western blotting): OCs treated with inhibitor
T2 sequence (P43235 115-329): T1 sequence (P43235 115-329)
Experimental: The inhibitory properties on CatK of inhibitors of this invention were tested in a biologically relevant setting: inhibition of bone resorption by osteoclasts (OCs). OCs are the cells that degrade the bone matrix by secretion of acid and CatK into the resorption lacunae, resulting in the cleavage of collagen type I. Inhibition of osteoclastic CatK was studied by culturing OCs on cortical bone slices in presence of inhibitors of this invention (FIG. 5). […] OCs predominantly form deep trenches (paths) while OCs lacking CatK form small pits (circular dots). B) CD14+ monocytes on bone slices were treated with MCSF (day 0) and RANKL (day 3) to stimulate differentiation to mature OCs. Medium containing either an inhibitor or DMSO was refreshed on day 7, 10, 13 and 16. At day 21, OCs were washed away and lysed, and bone slices were stained to visualize bone resorption. C) Bone resorption visualized by staining of resorption pits with Coomassie Brilliant Blue. More staining means more resorption pits, thus more bone resorption activity. Normal D) Schematic overview of pro-Cathepsin K activation. E) CatK activity and expression in OC lysates. […] Darker bands indicate more activity/expression of CatK.
OC lysates were treated with activity-based irreversible Cathepsin probe BMV109 to assess whether the observed inhibition of bone resorption could be correlated with CatK activity (FIG. 5E).

[2] = phase III clinical trials; cited from earlier work
CatK [3] = biological target: T2, CatK; conditions: cited from earlier work
[4] = in vivo; cited from earlier work
[5] = samples treated with high concentrations

Chain of hCatV (O60911 114-334): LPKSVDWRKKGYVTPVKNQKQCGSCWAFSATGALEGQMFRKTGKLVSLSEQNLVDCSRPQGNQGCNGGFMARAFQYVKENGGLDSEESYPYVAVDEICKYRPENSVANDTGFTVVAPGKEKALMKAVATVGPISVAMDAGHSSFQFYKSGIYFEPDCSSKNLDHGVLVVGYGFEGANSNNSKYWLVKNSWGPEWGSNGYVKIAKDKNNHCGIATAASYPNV
Chain of hCatS (P25774 115-331): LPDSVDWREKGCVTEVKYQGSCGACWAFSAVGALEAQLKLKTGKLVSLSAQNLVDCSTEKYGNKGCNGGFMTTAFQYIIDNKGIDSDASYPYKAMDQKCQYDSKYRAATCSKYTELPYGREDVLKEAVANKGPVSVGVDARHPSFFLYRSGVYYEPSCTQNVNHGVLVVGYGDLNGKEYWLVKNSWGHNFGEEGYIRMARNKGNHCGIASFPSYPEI
Chain of hCatL (P07711 114-333): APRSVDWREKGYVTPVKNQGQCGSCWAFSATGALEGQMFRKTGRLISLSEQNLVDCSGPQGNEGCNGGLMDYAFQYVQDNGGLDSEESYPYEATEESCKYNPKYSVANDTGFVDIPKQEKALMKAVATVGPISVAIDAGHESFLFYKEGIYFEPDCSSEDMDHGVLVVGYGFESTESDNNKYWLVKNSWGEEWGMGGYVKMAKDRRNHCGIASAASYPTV

kinact/Kl (hCatK)	Ki (hCatK)	kinact (hCatK)	IC50 (hCatV)	IC50 (hCatS)	IC50 (hCatB)	IC50 (hCatL)	mature CatK in OCs (Western blotting) (CatK [1])	CatK activity in OC lysates (probe BMV109) (CatK [1]; [5])	CatK activity in OC lysates (probe BMV109) (CatK [1]; all samples treated)	Structure (SMILES)	stroke risk [2]	selectivity for CatK versus other Cathepsins (CatK [3])	half-life [4]
250 M⁻¹ s⁻¹	3.25 µM	0.000783 s⁻¹	45.9 ± 2.33 µM	15.9 ± 1.84 µM	39.7 ± 4.34 µM	> 100 µM	mature CatK is present	full inhibition of CatK activity		C#CC(C)NC(=O)[C@H](CC(C)(C)F)N[C@@H](c1ccc(-c2ccc(S(C)(=O)=O)cc2)cc1)C(F)(F)F (mixture of isomers) [Compound 5, (S)—N—((R/S)-but-3-yn-2-yl)-4-fluoro-4-methyl-2-(((S)-2,2,2-trifluoro-1-(4′-(methylsulfonyl)-[1,1′-biphenyl]-4-yl)ethyl)amino)pentanamide]			
883 M⁻¹ s⁻¹	0.212 µM	0.000183 s⁻¹	23.8 ± 1.41 µM	10.7 ± 0.842 µM	9.39 ± 0.628 µM	> 100 µM	mature CatK is present	full inhibition of CatK activity		C#CCNC(=O)[C@H](CC(C)(C)F)N[C@@H](c1ccc(-c2ccc(S(C)(=O)=O)cc2)cc1)C(F)(F)F [Compound 4, (S)-4-fluoro-4-methyl-N-(prop-2-yn-1-yl)-2-(((S)-2,2,2-trifluoro-1-(4′-(methylsulfonyl)-[1,1′-biphenyl]-4-yl)ethyl)amino)pentanamide]			
			0.605 ± 0.0401 µM	0.0243 ± 0.000569 µM	0.0626 ± 0.0025 µM	5.35 ± 0.596 µM			strong increase of mature CatK activity	CC(C)(F)C[C@H](N[C@@H](c1ccc(-c2ccc(S(C)(=O)=O)cc2)cc1)C(F)(F)F)C(=O)NC1(C#N)CC1 [ODN, (S)—N-(1-cyanocyclopropyl)-4-fluoro-4-methyl-2-(((S)-2,2,2-trifluoro-1-(4′-(methylsulfonyl)-[1,1′-biphenyl]-4-yl)ethyl)amino)pentanamide, reference compound]	increased stroke risk	high selectivity	66 to 93 h
